Patent US9708359B2, “Pyrrolopyrimidine nucleosides and analogs thereof” (Chimerix, Inc., priority 2015, dated 2017)

Assays:
[1] = CytoTox-1 cytotoxicity assay in Huh 7 cells; format: cell-based; details: human, parallel to HCV assay
Experimental: Luciferase reporter (Replicon)/CytoTox-1 (Toxicity). Compounds were screened for anti-HCV activity using a luciferase (Luc) reporter gene endpoint in the HCV primary assay. The Luc reporter was used as an indirect measure of HCV replication as its activity is directly proportional to HCV RNA levels. Assessment of cytotoxicity is conducted in parallel. Drug stocks were prepared in DMSO unless otherwise specified and were diluted with tissue culture medium to the desired high-test concentration. For each assay, the compounds were then further diluted in tissue culture medium as required. After incubation, the cells were processed to derive, where applicable, EC50 and EC90 (compound concentration reducing replicon replication by 50% and 90% respectively). […] Anti-HCV activity was assessed with the replicon (genotype 1b or 2a) or HCVcc virus-derived Luc activity as readout; whereas the cytotoxic concentrations of drug reducing cell numbers was assessed by the CytoTox-1 cell proliferation assay according to manufacturer's protocol. […]
Luciferase reporter (Replicon)/CytoTox-1 (Toxicity). […] Anti-HCV activity was assessed with the replicon (genotype 1b or 2a) or HCVcc virus-derived Luc activity as readout; whereas the cytotoxic concentrations of drug reducing cell numbers was assessed by the CytoTox-1 cell proliferation assay (Promega, Madison, Wis.) according to manufacturer's protocol. […]

[2] = tested on: murine norovirus (MNV) CR3; experiment: Study No. 2: efficacy against Murine Norovirus infection in mice; format: in vivo, BALB/c mice; details: twice daily 300 mg/kg starting 2 days prior to infection, 10^4 PFU
Experimental: Study No. 2 evaluated the efficacy of twice-daily dosing of Compound 1 at 150 mg/kg or 300 mg/kg, initiated prior to infection of mice with 10^4 pfu of MNV CR3. A control group of mice treated with vehicle was also included. The 150 mg/kg dose was started either 2 days (39 hours) prior to inoculation, 1 day (15 hours) prior to inoculation, or on the day of (3 hours prior to) inoculation; the 300 mg/kg dose was started 2 days (39 hours) prior to infection.
This study tested the ability of Compound 1 to protect mice from or reduce murine norovirus infection. Compound was delivered twice daily at indicated doses via oral gavage starting 2 days prior to inoculation, 1 day prior to inoculation or at time of inoculation. A control group of mice treated with vehicle only was also included. Mice were infected with 10^4 PFU of murine norovirus by pipetting virus into mouth 3 hours after the Day 0 dose. All samples were titered by plaque assay.
For both studies, compound was delivered via oral gavage at the indicated doses and times prior to infection. Mice were infected with murine norovirus CR3 by pipetting virus into mouth 3 hours after the first day 0 dose of Compound 1 was given. Following infection, compound was administered twice daily through day 3 post-infection.
The mice used were ˜20 gram, 8-12 week old female BALB/c mice in groups of 5. […]

DENV-2 = experiment: microbe, parasite or virus in culture; format: cell-based; details: Dengue virus, DENV2, Vero 76; DENV-2, Vero76 cells
HCMV = experiment: Plaque-reduction assay for HCMV; format: cell-based, human cytomegalovirus; details: Human betaherpesvirus 5, HFF cells
Experimental: Plaque-Reduction Assays for HSV-1, HSV-2, VZV and HCMV:
Monolayers of cells were prepared in six-well plates and incubated at to allow the cells to reach confluency. Media was then aspirated from the wells and of virus was added to each of three wells to yield 20-30 plaques in each well. The virus was allowed to adsorb to the cells for 1 h and the plates were rocked gently every 15 min to redistribute the media. Compounds were diluted in maintenance cell culture media consisting of MEM with Earl's salts supplemented with 2% FBS, L-glutamine, penicillin, and gentamycin. Solutions were added to duplicate wells and the plates were incubated for various times, depending on the virus used. The plaque-reduction assay with HSV-1 strain F was performed in a similar manner but with Vero cells infected one day after plating. For HSV-1 and -2, the monolayers were stained with 1% crystal violet in 20% methanol and the unbound dye removed by washing with dH2O. For assays with HCMV and VZV, the cell monolayer was stained with 1% Neutral Red solution for 4 h then the stain was aspirated and the cells were washed with PBS. For all assays, plaques were enumerated using a stereomicroscope and the concentration of compound that reduced plaque formation by 50% (EC50) was interpolated from the experimental data. […]

WNV = experiment: microbe, parasite or virus in culture; format: cell-based; details: West Nile virus, Vero 76, Vero76 cells

**Q.** Which CC50 [1] does the source give for `Cc1nc(N)c2c(C(N)=O)cn([C@@H]3O[C@H](CO)[C@@H](O)[C@H]3O)c2n1` [Compound 1, 4-amino-7-((2R,3R,4S,5R)-3,4-dihydroxy-5-(hydroxymethyl)tetrahydrofuran-2-yl)-2-methyl-7H-pyrrolo[2,3-d]pyrimidine-5-carboxamide] here?
**A.** The CC50 was > 20 µM.

**Q.** What about the “murine norovirus titer in tissue and feces” value [2] of the same compound?
**A.** The value was “significantly reduces murine norovirus titer both in tissue and feces”.

**Q.** What about the EC50 (DENV-2) of the same compound?
**A.** Its EC50 is > 100 µM.

**Q.** And the EC50 (HCMV)?
**A.** Its EC50 is > 60 µM.

**Q.** And the EC50 (WNV)?
**A.** The EC50 was > 100 µM.
